# Experimental data as given in US10947202B2, “Sodium ion channel inhibitors and pharmaceutically acceptable salts and polymorphs thereof and uses thereof” (SHANGHAI HAIYAN PHARMACEUTICAL TECHNOLOGY CO., LTD., priority 2017, dated 2021).
# Target: hNav1.7 (Homo sapiens, UniProt Q15858)
# Test: Manual patch clamp experiment of hNav1.7 channel (CHO-hNav1.7 stable cell line)
# Type: cell-based
# Description: Patch voltage clamp electrophysiology allows for the direct measurement and quantification of current block of voltage-gated sodium channels (NaV's), and allows the determination of the time and voltage-dependence of block which has been interpreted as differential binding to the resting, open and inactivated states of the sodium channel to reflect the compound's inhibitory or activating effects (Hille, B., Journal of General Physiology (1977), 69: 497-515).
# Representative compounds of the present disclosure were performed using a manual patch clamp experiment and the purpose of this study was to test the effect of compounds on this ion channel current on a stable cell line transfected with a specific ion channel using a manual patch clamp method, the used stable cell lines CHO-hNav1.7 and HEK-hNav1.5 were from Genionics and WuXi Apptec (Shanghai) respectively.
# Manual patch clamp experimental program is as follows:
# (1) Preparation of solutions and compounds: The whole cell patch clamp technique was used to record hNav1.7 and hNav1.5 currents. In the experiment, the composition of extracellular fluid (mM): HEPES: 5, NaCl: 40, KCl: CaCl2:1, MgCl2:1, CdCl2:0.1, TEA-Cl: 20. The pH was adjusted to 7.3 with NaOH and the osmotic pressure was adjusted to 310-320 mOsm with sucrose, filtered and stored at 4° C. The composition of the intracellular fluid (mM): HEPES: 10, NaCl: 10, CsOH: 5, CsF: 140, EGTA: 1. The pH was adjusted to 7.3 with CsOH and the osmotic pressure was adjusted to 280-290 mOsm with sucrose, filtered and stored at −20° C.
# The positive control and the test compound were firstly dissolved in 100% DMSO (Sigma-Aldrich, D2650), configured as stock solution at a concentration (100 nM, 1000 nM).) The above stock solution was serially diluted with DMSO prior to the experiment, the solution was further diluted with extracellular solution to obtain the desired concentration of the test solution.
# (2) Manual Patch Clamp Experiment: The cell suspension was added to a 35 mm petri dish and placed on an inverted microscope stage, the cells were perfused with an extracellular fluid and the flow rate was 1-2 mL/min after cell adherence. The glass microelectrode was pulled in two steps by a microelectrode puller with an inlet water resistance of 2-5 MΩ. A/D-D/A digital-analog conversion was performed by Digidata 1440 (Molecular Devices) and pCLAMP software (version 10.2, Molecular Devices) for stimulation and signal acquisition; the signal was amplified by patch clamp amplifier (Multiclamp 700B, Molecular Devices), filtering is 4 KHz.
# Two different voltage stimulation procedures were used in the hNav1.7 and hNav1.5 manual patch clamp experiments.
# One is the inactivation stimulation program, the clamp potential is set at V1/2 of the corresponding channel, ie about 50% of the channels are inactivated, then the voltage is applied to −120 mV for 50 ms, then depolarized to −10 mV for 20 ms leading to sodium current, and finally back to the clamp potential. This stimulation program can also be called channel state-dependent voltage stimulation program.
# The other is the non-inactivation stimulation program, the clamp potential is maintained at −120 mV, voltage stimulation is given to −10 mV for 20 ms leading to sodium current, and finally back to the clamp potential. That is all channels have not experienced inactivation status, but activate directly from the resting state under the conditions of the stimulation program.
# The time intervals of these two voltage stimulation program were 10 s. The inhibitory effect of the compound was calculated by the change of the current before and after dosing, the IC50 value was fitted by the Hill equation. […] The results are shown in Table 33 and Table 34, respectively.
# Sequence of hNav1.7 (Q15858 whole entry): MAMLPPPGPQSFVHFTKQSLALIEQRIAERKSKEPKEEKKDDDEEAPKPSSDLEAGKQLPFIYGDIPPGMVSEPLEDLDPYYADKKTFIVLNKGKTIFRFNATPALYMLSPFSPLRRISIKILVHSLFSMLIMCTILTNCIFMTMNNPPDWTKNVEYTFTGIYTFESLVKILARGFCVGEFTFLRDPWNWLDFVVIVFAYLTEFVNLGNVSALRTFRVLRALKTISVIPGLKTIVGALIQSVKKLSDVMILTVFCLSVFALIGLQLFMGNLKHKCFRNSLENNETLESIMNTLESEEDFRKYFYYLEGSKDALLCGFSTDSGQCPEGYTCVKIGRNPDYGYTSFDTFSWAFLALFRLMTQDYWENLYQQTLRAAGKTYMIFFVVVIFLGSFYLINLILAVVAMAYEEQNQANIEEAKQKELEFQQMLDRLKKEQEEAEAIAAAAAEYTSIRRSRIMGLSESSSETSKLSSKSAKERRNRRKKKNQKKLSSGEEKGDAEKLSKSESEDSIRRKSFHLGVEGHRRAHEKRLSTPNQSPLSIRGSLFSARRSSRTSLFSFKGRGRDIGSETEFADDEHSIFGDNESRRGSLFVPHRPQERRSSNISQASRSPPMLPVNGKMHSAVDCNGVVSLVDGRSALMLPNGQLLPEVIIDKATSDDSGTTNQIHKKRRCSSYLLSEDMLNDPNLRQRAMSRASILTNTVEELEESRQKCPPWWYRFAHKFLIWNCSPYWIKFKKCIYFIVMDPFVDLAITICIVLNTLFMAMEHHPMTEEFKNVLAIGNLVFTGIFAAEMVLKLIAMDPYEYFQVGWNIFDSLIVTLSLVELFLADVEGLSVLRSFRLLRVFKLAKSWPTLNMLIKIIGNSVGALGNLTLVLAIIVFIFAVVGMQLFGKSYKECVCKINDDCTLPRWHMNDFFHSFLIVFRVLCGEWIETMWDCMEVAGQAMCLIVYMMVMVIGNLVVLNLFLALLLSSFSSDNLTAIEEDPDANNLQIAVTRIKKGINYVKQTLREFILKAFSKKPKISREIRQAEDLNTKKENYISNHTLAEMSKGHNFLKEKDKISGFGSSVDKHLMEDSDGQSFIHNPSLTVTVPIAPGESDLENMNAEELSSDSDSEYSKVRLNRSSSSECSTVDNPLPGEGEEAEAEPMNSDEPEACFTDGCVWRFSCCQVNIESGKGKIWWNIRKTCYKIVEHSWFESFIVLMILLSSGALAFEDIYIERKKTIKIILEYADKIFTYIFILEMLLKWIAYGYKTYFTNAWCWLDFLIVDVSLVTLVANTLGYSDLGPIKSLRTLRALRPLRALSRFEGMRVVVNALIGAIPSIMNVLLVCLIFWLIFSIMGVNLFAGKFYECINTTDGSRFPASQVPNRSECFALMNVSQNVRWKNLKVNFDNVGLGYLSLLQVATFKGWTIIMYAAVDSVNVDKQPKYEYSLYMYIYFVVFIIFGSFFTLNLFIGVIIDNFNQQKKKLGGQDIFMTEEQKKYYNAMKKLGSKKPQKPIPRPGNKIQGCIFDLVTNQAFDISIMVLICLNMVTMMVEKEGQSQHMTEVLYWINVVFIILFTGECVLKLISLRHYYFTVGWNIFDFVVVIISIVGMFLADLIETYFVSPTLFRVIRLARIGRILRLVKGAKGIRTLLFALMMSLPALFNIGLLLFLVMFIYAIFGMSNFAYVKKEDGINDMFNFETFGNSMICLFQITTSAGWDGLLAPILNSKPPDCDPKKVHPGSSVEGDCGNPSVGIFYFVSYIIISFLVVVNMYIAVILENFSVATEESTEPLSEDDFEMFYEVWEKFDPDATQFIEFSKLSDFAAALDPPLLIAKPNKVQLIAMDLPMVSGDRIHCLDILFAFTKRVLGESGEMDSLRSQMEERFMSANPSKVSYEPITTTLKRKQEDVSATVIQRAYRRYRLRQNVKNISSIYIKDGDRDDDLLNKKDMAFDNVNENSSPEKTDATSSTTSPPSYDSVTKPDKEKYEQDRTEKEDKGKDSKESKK
compound,measurement,setting,value
"Cc1cc(N2CCN(Cc3cc(F)c(C(=O)NS(=O)(=O)C4CC4)cc3Cl)CC2)ccc1Cl [the free base of formula X compound, 5-chloro-4-((4-(4-chloro-3-methylphenyl)piperazin-1-yl)methyl)-N-(cyclopropylsulfonyl)-2-fluorobenzamide]",inhibitory activity against Nav1.7,,higher inhibitory activity
same,inhibition at 0.1 µM,"read-out: Inhibition of Nav1.7, 100 nM(%)",86.9%
same,inhibition at 1 µM,"read-out: Inhibition of Nav1.7, 1000 nM(%)",97.7%
